# Results taken from PubChem BioAssay (NCI).
#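 A five-concentration, 48-hour dose response in 96-well plates underlies each endpoint, interpolated linearly between surrounding concentrations. TGI is the concentration that stops growth completely.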
# Assays:
# Test in all cases: DTP human tumour cell line panel, 48 h
# [1] = tested on: NCI/ADR-RES ovarian
# [2] = tested on: UACC-257 melanoma
# [3] = tested on: HS 578T breast
# [4] = tested on: SN12C renal
# [5] = tested on: NCI-H23 lung
# [6] = tested on: EKVX NSCLC
# [7] = tested on: DU-145 prostate
# [8] = tested on: TK-10 renal
# [9] = tested on: HT29 colon
# [10] = tested on: UO-31 renal
# [11] = tested on: NCI-H460 lung
# [12] = tested on: SF-268 CNS
# [13] = tested on: SF-295 CNS
# [14] = tested on: SK-MEL-2 melanoma
# [15] = tested on: ACHN renal
# [16] = tested on: CCRF-CEM leukemia
# [17] = tested on: OVCAR-5 ovarian
# [18] = tested on: MCF7 breast
# [19] = tested on: MDA-MB-231 breast
# [20] = tested on: OVCAR-8 ovarian
# [21] = tested on: A498 renal
# [22] = tested on: MDA-MB-435
# [23] = tested on: HOP-62 NSCLC
# [24] = tested on: HCT-15 colon
# [25] = tested on: 786-0 renal
# [26] = tested on: NCI-H522 lung
# [27] = tested on: SR leukemia
# [28] = tested on: K-562 leukemia
# [29] = tested on: OVCAR-3 ovarian
# [30] = tested on: RPMI-8226 leukemia
# [31] = tested on: CAKI-1 renal
# [32] = tested on: COLO 205 colon
# [33] = tested on: SW-620 colon
# [34] = tested on: HL-60(TB) leukemia
# [35] = tested on: RXF 393 renal
# [36] = tested on: HCT-116 colon
# [37] = tested on: OVCAR-4 ovarian
# [38] = tested on: NCI-H226 lung
# [39] = tested on: HOP-92 NSCLC
# [40] = tested on: MOLT-4 leukemia
# [41] = tested on: HCC-2998 colon
# [42] = tested on: A549 NSCLC
# [43] = tested on: U251 CNS
# [44] = tested on: MALME-3M melanoma
# [45] = tested on: PC-3 prostate
# [46] = tested on: SNB-75 CNS
# [47] = tested on: BT-549 breast
# [48] = tested on: LOX IMVI melanoma
# [49] = tested on: IGROV1 ovarian
# [50] = tested on: KM12 colon
# [51] = tested on: SK-MEL-5 melanoma
# [52] = tested on: SK-MEL-28 melanoma
# [53] = tested on: SF-539 CNS
# [54] = tested on: MDA-N
# [55] = tested on: SNB-19 CNS
# [56] = tested on: UACC-62 melanoma
# [57] = tested on: M14 melanoma
# [58] = tested on: SK-OV-3 ovarian
compound,measurement,setting,value
Cc1cn([C@@H]2C[C@H](CO)[C@@H]2O)c(=O)[nH]c1=O,TGI,[1],> 100 µM
same,TGI,[2],> 100 µM
same,TGI,[3],> 100 µM
same,TGI,[4],> 100 µM
same,TGI,[5],> 100 µM
same,TGI,[6],> 100 µM
same,TGI,[7],> 100 µM
same,TGI,[8],> 100 µM
same,TGI,[9],> 100 µM
same,TGI,[10],> 100 µM
same,TGI,[11],> 100 µM
same,TGI,[12],> 100 µM
same,TGI,[13],> 100 µM
same,TGI,[14],> 100 µM
same,TGI,[15],> 100 µM
same,TGI,[16],> 100 µM
same,TGI,[17],> 100 µM
same,TGI,[18],> 100 µM
same,TGI,[19],> 100 µM
same,TGI,[20],> 100 µM
same,TGI,[21],> 100 µM
same,TGI,[22],> 100 µM
same,TGI,[23],> 100 µM
same,TGI,[24],> 100 µM
same,TGI,[25],> 100 µM
same,TGI,[26],> 100 µM
same,TGI,[27],> 100 µM
same,TGI,[28],> 100 µM
same,TGI,[29],> 100 µM
same,TGI,[30],> 100 µM
same,TGI,[31],> 100 µM
same,TGI,[32],> 100 µM
same,TGI,[33],> 100 µM
same,TGI,[34],> 100 µM
same,TGI,[35],> 100 µM
same,TGI,[36],> 100 µM
same,TGI,[37],> 100 µM
same,TGI,[38],> 100 µM
same,TGI,[39],> 100 µM
same,TGI,[40],> 100 µM
same,TGI,[41],> 100 µM
same,TGI,[42],> 100 µM
same,TGI,[43],> 100 µM
same,TGI,[44],> 100 µM
same,TGI,[45],> 100 µM
same,TGI,[46],> 100 µM
same,TGI,[47],> 100 µM
same,TGI,[48],> 100 µM
same,TGI,[49],> 100 µM
same,TGI,[50],> 100 µM
same,TGI,[51],> 100 µM
same,TGI,[52],> 100 µM
same,TGI,[53],> 100 µM
same,TGI,[54],> 100 µM
CC1C(C#N)(C#N)C(C#N)=C(N)C1(C)[N+](=O)[O-] (stereo unspecified),TGI,[55],> 100 µM
same,TGI,[1],> 100 µM
same,TGI,[56],> 100 µM
same,TGI,[2],> 100 µM
same,TGI,[3],> 100 µM
same,TGI,[4],> 100 µM
same,TGI,[5],> 100 µM
same,TGI,[6],42.6 µM
same,TGI,[7],> 100 µM
same,TGI,[8],> 100 µM
same,TGI,[9],> 100 µM
same,TGI,[10],> 100 µM
same,TGI,[11],> 100 µM
same,TGI,[12],> 100 µM
same,TGI,[13],> 100 µM
same,TGI,[14],> 100 µM
same,TGI,[15],> 100 µM
same,TGI,[57],> 100 µM
same,TGI,[16],> 100 µM
same,TGI,[17],> 100 µM
same,TGI,[18],> 100 µM
same,TGI,[19],> 100 µM
same,TGI,[20],> 100 µM
same,TGI,[21],> 100 µM
same,TGI,[22],> 100 µM
same,TGI,[23],> 100 µM
same,TGI,[24],> 100 µM
same,TGI,[25],> 100 µM
same,TGI,[26],> 100 µM
same,TGI,[27],> 100 µM
same,TGI,[28],> 100 µM
same,TGI,[29],> 100 µM
same,TGI,[30],> 100 µM
same,TGI,[31],> 100 µM
same,TGI,[32],> 100 µM
same,TGI,[33],> 100 µM
same,TGI,[58],> 100 µM
same,TGI,[34],90.7 µM
same,TGI,[35],> 100 µM
same,TGI,[36],> 100 µM
same,TGI,[37],> 100 µM
same,TGI,[38],> 100 µM
same,TGI,[39],8.96 µM
same,TGI,[40],> 100 µM
same,TGI,[41],> 100 µM
same,TGI,[42],> 100 µM
same,TGI,[43],> 100 µM
same,TGI,[44],> 100 µM
same,TGI,[45],> 100 µM
same,TGI,[46],> 100 µM
same,TGI,[47],> 100 µM
same,TGI,[48],> 100 µM
same,TGI,[49],> 100 µM
same,TGI,[50],> 100 µM
same,TGI,[51],> 100 µM
same,TGI,[53],> 100 µM
same,TGI,[54],> 100 µM
